Assays:
Type in all cases: in vivo
[1] = system: German cockroaches (Blattella germanica); assay: Spray knockdown test on German cockroaches (Test Examples 1, 2); conditions: 5 min, 1.5 ml sprayed, counted after 5 minutes, read-out: knockdown rate; for pest or weed control at 0.5 %: active ingredient 0.5% w/v oil solution; for pest or weed control at 2 %: active ingredient 2.0% w/v oil solution
Method: The formulations of Compounds (7), (46), (48) and (54) of the present invention obtained in Formulation Example 7 were diluted with a mixture solution of isopropyl alcohol/deodorized kerosene of 1/9, so as to have a concentration of active ingredient of 2.0% w/v, to prepare a test drug solution.
Ten German cockroaches (Blattella germanica) (5 males and 5 females) were released in a test container (8.75 cm in diameter, 7.5 cm in height, and the bottom made of 16 mesh metallic wire) with the inner wall on which butter was applied, and the container was placed on the bottom of a test chamber (bottom: 46 cm×46 cm, height: 70 cm). From a height of 60 cm above the upper surface of the container, 1.5 ml of the test drug solution was sprayed using a spray gun (a spraying pressure of 0.42 kg/cm^2). Thirty seconds after spraying, the container was taken out from the test chamber, and after 5 minutes, the number of knockdown insects was counted to obtain a knockdown rate. The knockdown rate was calculated by the following equation.
(§1) Knockdown Rate(%)=(Number of Knockdown Insects/Number of Tested Insects)×100
The formulations of Compounds (1), (2), (4), (6) to (8), (10) to (14), (17) to (20), (23) to (25), (28), (31) to (33), (39) to (42), (44) and (50) to (53) of the present invention obtained in Formulation Example 7 were diluted with a mixture solution with a ratio of isopropyl alcohol/deodorized kerosene of 1/9, so as to have a concentration of active ingredient of 0.5% w/v, to prepare a test drug solution.
The test was performed in the same manner as in Test Example 1.

[2] = system: adult houseflies (Musca domestica); assay: Filter paper/sucrose bait knockdown test on adult houseflies (Test Example 7); conditions: 0.7 ml on filter paper with sucrose bait, after 2 hours, read-out: knockdown rate
Method: Each of the formulations of Compounds (2), (4) to (6), (8), (9), (18), (21) to (23), (27), (29), (32) to (36), (38), (41), (42) and (53) of the present invention obtained in Formulation Example 15 was diluted with water, so as to have a concentration of active ingredient of 500 ppm, to prepare a test drug solution.
On the bottom of a polyethylene cup with a diameter of 5.5 cm, a filter paper of the same size was laid down, and 0.7 ml of the test drug solution was dropped onto the filter paper, then 30 mg of sucrose was uniformly put as bait. Ten adult houseflies (Musca domestica) were released in the polyethylene cup which was then capped. After 2 hours, the number of knockdown insects was counted to obtain a knockdown rate. The knockdown rate was calculated by the following equation.
as §1

adult houseflies = assay: Spray knockdown test on adult houseflies (Test Examples 3, 4); conditions: Musca domestica, 10 min, 0.5 ml sprayed, counted after 10 minutes, read-out: knockdown rate; for pest or weed control at 0.5 %: active ingredient 0.5% w/v oil solution; for pest or weed control at 2 %: active ingredient 2.0% w/v oil solution
Method: The formulations of Compounds (7), (46) and (48) of the present invention obtained in Formulation Example 7 were diluted with a mixture solution with a ratio of isopropyl alcohol/deodorized kerosene of 1/9, so as to have a concentration of active ingredient of 2.0% w/v, to prepare a test drug solution.
Ten adult houseflies (5 males and 5 females) were released in a polyethylene cup (a bottom diameter of 10.6 cm) which was then capped with 16-mesh nylon gauze. The polyethylene cup was placed on the bottom of a test chamber (bottom: 46 cm×46 cm, height: 70 cm). From a height of 30 cm above the upper surface of the polyethylene cup, 0.5 ml of the test drug solution was sprayed using a spray gun (a spraying pressure of 0.9 kg/cm^2). Immediately after spraying, the cup was taken out from the test container, and after 10 minutes, the number of knockdown insects was counted to obtain a knockdown rate. The knockdown rate was calculated by the following equation.
as §1
The formulations of Compounds (4), (6), (8), (17) to (19), (28), (29), (33), (40) to (42) and (51) to (53) of the present invention obtained in Formulation Example 7 were diluted with a mixture solution with a ratio of isopropyl alcohol/deodorized kerosene of 1/9, so as to have a concentration of active ingredient of 0.5% w/v, to prepare a test drug solution. The test was performed in the same manner as in Test Example 3.

[3] = system: last instar larvae of common house mosquitoes (Culex pipiens pallens); assay: Larvicidal test on common house mosquito larvae in water (Test Examples 9, 10); conditions: active ingredient 3.5 ppm in water
Method: Each of the formulations of Compounds (26) and (45) of the present invention obtained in Formulation Example 15 was diluted with water, so as to have a concentration of active ingredient of 500 ppm, to prepare a test drug solution.
0.7 ml of the test drug solution was added to 100 ml of ion-exchanged water (a concentration of active ingredient of 3.5 ppm).
Each of the formulations of Compounds (5), (6), (24), (27), (29), (30), (33), (38) and (47) of the present invention obtained in Formulation Example 15 was diluted with water, so as to have a concentration of active ingredient of 500 ppm, to prepare a test drug solution.

Q: For `CCCCC/C=C/C(=O)NCC1CCOC1` (stereo not drawn) [Compound (1), (E)-N-(tetrahydrofuran-3-ylmethyl)-2-octenamide], which pest or weed control at 0.5 % [1] is on record?
A: ≥ 70%

Q: How did the pest or weed control at 500 ppm [2] turn out when `CCCCCC/C=C/C(=O)NCC1CCOC1` (stereo not drawn) [Compound (2), (E)-N-(tetrahydrofuran-3-ylmethyl)-2-nonenamide] was run?
A: 100%

Q: And the pest or weed control at 0.5 % [1]?
A: ≥ 70%

Q: How did the pest or weed control at 0.5 % [1] turn out when `CCCCCCC/C=C/C(=O)NCC1CCOC1` (stereo not drawn) [Compound (4), (E)-N-(tetrahydrofuran-3-ylmethyl)-2-decenamide] was run?
A: ≥ 70%

Q: What about the pest or weed control at 0.5 % (adult houseflies) of the same molecule?
A: ≥ 80%

Q: Which mortality at 3.5 ppm ([3]; 192 h, after 8 days) does the source give for `CCCCCCCC/C=C/C(=O)NCC1CCOC1` (stereo not drawn) [Compound (5), (E)-N-(tetrahydrofuran-3-ylmethyl)-2-undecenamide] here?
A: ≥ 95%

Q: How did the mortality at 3.5 ppm ([3]; 192 h, after 8 days) turn out when `CCCCCC/C(C)=C/C(=O)NCC1CCOC1` (stereo not drawn) [Compound (6), (E)-N-(tetrahydrofuran-3-ylmethyl)-3-methyl-2-nonenamide] was run?
A: ≥ 95%

Q: And the pest or weed control at 0.5 % (adult houseflies)?
A: ≥ 80%

Q: `CCCCCC/C=C(\F)C(=O)NCC1CCOC1` (stereo not drawn) [Compound (7), (Z)—N-(tetrahydrofuran-3-ylmethyl)-2-fluoro-2-nonenamide] was tested. Which pest or weed control at 2 % [1] did it give?
A: ≥ 80%

Q: And the pest or weed control at 2 % (adult houseflies)?
A: ≥ 80%

Q: Which pest or weed control at 500 ppm [2] does the source give for `CCCCCC/C(C)=C(/F)C(=O)NCC1CCOC1` (stereo not drawn) [Compound (9), (E)-N-(tetrahydrofuran-3-ylmethyl)-2-fluoro-3-methyl-2-nonenamide] here?
A: 100%

Q: `CCCC1CC1/C=C/C(=O)NCC1CCOC1` (stereo not drawn) [Compound (18), (E)-N-(tetrahydrofuran-3-ylmethyl)-3-(trans-2′-propylcyclopropyl)-2-propenamide] was tested. Which pest or weed control at 500 ppm [2] did it give?
A: 100%

Q: Which mortality at 3.5 ppm ([3]; 192 h, after 8 days) does the source give for `CCCCC/C=C/C(=O)NCC1CCOCC1` [Compound (24), (E)-N-(tetrahydropyran-4-ylmethyl)-2-octenamide] here?
A: ≥ 95%

Q: With `CCCCCCC/C=C/C(=O)NCC1CCOCC1` [Compound (26), (E)-N-(tetrahydropyran-4-ylmethyl)-2-decenamide] as the molecule, how does the mortality at 3.5 ppm ([3]; after a day) read?
A: ≥ 95%

Q: `CCCCCC/C(C)=C/C(=O)NCC1CCOCC1` [Compound (28), (E)-N-(tetrahydropyran-4-ylmethyl)-3-methyl-2-nonenamide] was tested. Which pest or weed control at 0.5 % [1] did it give?
A: ≥ 70%

Q: And the pest or weed control at 0.5 % (adult houseflies)?
A: ≥ 80%

Q: `CCCCCC/C(C)=C(/F)C(=O)NCC1CCOCC1` [Compound (30), (E)-N-(tetrahydropyran-4-ylmethyl)-2-fluoro-3-methyl-2-nonenamide] was tested. Which mortality at 3.5 ppm ([3]; 192 h, after 8 days) did it give?
A: ≥ 95%

Q: Which results are given for `C#CCCCC/C=C/C(=O)NCC1CCOCC1` [Compound (38), (E)-N-(tetrahydropyran-4-ylmethyl)-non-2-en-8-ynamide]?
A: pest or weed control at 500 ppm [2]: 100%; mortality at 3.5 ppm ([3]; 192 h, after 8 days): ≥ 95%

Q: `CCC1CC1CC/C=C/C(=O)NCC1CCOCC1` (stereo not drawn) [Compound (44), (E)-N-(tetrahydropyran-4-ylmethyl)-5-(trans-2′-ethylcyclopropyl)-2-pentenamide] was tested. Which pest or weed control at 0.5 % [1] did it give?
A: ≥ 70%

Q: What does the source list for `CCCCCC/C=C/C(=O)NCC1CCCCO1` (stereo not drawn) [Compound (46), (E)-N-(tetrahydropyran-2-ylmethyl)-2-nonenamide]?
A: pest or weed control at 2 % [1]: ≥ 80%; pest or weed control at 2 % (adult houseflies): ≥ 80%

Q: Which mortality at 3.5 ppm ([3]; 192 h, after 8 days) does the source give for `CCCCCC/C=C/C(=O)NCC1COCCO1` (stereo not drawn) [Compound (47), (E)-N-(1,4-dioxan-2-ylmethyl)-2-nonenamide] here?
A: ≥ 95%

Q: Which pest or weed control at 2 % [1] does the source give for `CCCCCC/C=C/C(=O)NCC1(CC)COCOC1` [Compound (48), (E)-N-(5-ethyl-1,3-dioxan-5-ylmethyl)-2-nonenamide] here?
A: ≥ 80%

Q: And the pest or weed control at 2 % (adult houseflies)?
A: ≥ 80%

Q: Which pest or weed control at 500 ppm [2] does the source give for `CC1CC1C1CC1/C=C/C(=O)NCC1CCOCC1` (stereo not drawn) [Compound (53), (E)-N-(tetrahydropyran-4-ylmethyl)-3-(trans-2′-(trans-2″-methylcyclopropyl)cyclopropyl)-2-propenamide] here?
A: 100%

Q: With `O=C(/C=C/CCCCCl)NCC1CCOCC1` [Compound (54), (E)-N-(tetrahydropyran-4-ylmethyl)-7-chloro-2-heptenamide] as the molecule, how does the pest or weed control at 2 % [1] read?
A: ≥ 80%
